System: 5/6 Nephrectomy induced chronic kidney disease (CKD) in rat
Experiment: 5/6 Nephrectomy induced chronic kidney disease in rat: IS and PCS blood level, mortality
Format: in vivo, Wistar rats (Rattus norvegicus)
Conditions: for IS Mean: Indoxyl Sulphate blood level, disease control 7.33; for IS Mean / PCS Mean: p.o. daily for 13 weeks; for PCS Mean: P-Cresyl Sulphate blood level, disease control 1.13; for IS % Decreased: decrease in Indoxyl Sulphate blood level compared to disease control; for IS % Decreased / PCS % Decreased: p.o. daily 13 weeks; for PCS % Decreased: decrease in P-Cresyl Sulphate blood level compared to disease control
Procedure: The effect of the compositions of the present invention and other test and reference compositions was studied in animals. For this study, screening effect of synergistic combination or composition/formulation comprising Inulin and other active ingredients against 5/6 Nephrectomy induced chronic kidney disease (CKD) in rat was performed. The following trials were carried out:
Eighty Four (84) female rats (Wistar rats (Rattus norvegicus)) divided into 14 groups (6 per group) were maintained in animal house in a light/dark atmosphere based on a 12 hour cycle having temperature and relative humidity in the range of 19 to 25±2° C. and 30-70%, respectively. To maintain the appropriate conditions, temperature and relative humidity were recorded three times daily. All animals were acclimatized for a minimum period of five days. Animals were maintained in the test setup for minimum 30 minutes once during the acclimatization period to reduce the stress. Animals were weighed on the day of receipt and observed daily for abnormalities if any. Detailed records of acclimatization were also maintained. Rats were housed 3 per cage in clean, sterilized Polypropylene cages. During complete experiment, animals were supplied with the standard certified rat pellet feed and drinking water treated by the reverse osmosis ad libitum.
In order to evaluate the activity against chronic kidney disease, eighty four (84) rats were screened and divided into Fourteen (14) groups. For a comparative analysis, groups were divided as normal control (Group 1 (G1)), sham Control (Group 2 (G2)), disease control (Group 3 (G3)), treatment groups with individual components (Group 4 (G4), Group 5 (G5) and Group 6 (G6) as Inulin, Betaine and Resistant Starch respectively), test composition (Group 7 (G7) to Group 11 (G11) (Combination of Inulin with Betaine at different dose level), test composition Group 12 (G12) to Group 13 (G13) (Combination of Inulin, Betaine and Resistant Starch) and reference standard (Group 14 (G14)) (Activated Charcoal). Table 1 provides the details of the various groups and treatments conducted in the trial wherein G4 to G14 are treatment groups. Experiment was carried out for 3 months in two stages.
The animals under consideration were examined for a study period of 13 weeks and two-stage surgical procedure for kidney ligation and removal were performed.
Stage one: A ventral midline incision into the abdomen was made to expose the animal's left kidney and the organ was freed from the surrounding tissue. A piece of suture was placed and ligated around each pole of the kidney at its one-third position. The one-third kidney on each pole was excised beyond the ligatures and the abdominal incision was closed.
Stage two: This procedure was performed 7 days after stage one. The animals were placed in ventral recumbency and an incision was made parallel to the midline. The abdominal cavity was entered, and the right kidney was made free from the surrounding tissue. The kidney was gently pulled out from the incision and the adrenal gland was freed and replaced into the abdominal cavity. The renal blood vessels and the ureter were ligated or cauterized. The kidney was then removed by transecting the vessels and ureter just distal to the ligature or cauterized section. The skin incision was closed with wound clips.
Treatment: All treatment groups were treated on daily basis for 13 weeks after stage two of surgery. Blood collection and biochemistry analysis were done after completion of the treatment of all treated groups at the end of 13th week treatment.

Row | Compound | IS Mean [mg/L] | PCS Mean [mg/L] | IS % Decreased [%] | PCS % Decreased [%]
1 | C[N+](C)(C)CC(=O)O [Betaine] | 7.01 | 1.09 | 4.37 | 3.54
2 | Inulin | 5.55 | 0.84 | 24.29 | 25.66
3 | Resistant Starch [RS] | 6.5 | 1.01 | 11.33 | 10.62

— patent US12048713B2, “Pharmaceutical composition for reducing protein bound uremic toxins” (Frimline Private Limited, priority 2020, dated 2024)
